{"source": "patent US20240239786A1", "about": "“COMPOSITIONS AND METHODS FOR THE TREATMENT AND PREVENTION OF CANCER” (Yale University, priority 2021, published 2024)", "tested_on": "PEO1 cells", "test": "MTS cytotoxicity assay, sensitization to olaparib, PEO1", "type": "cell-based", "conditions": "30 μM, olaparib 72 hr", "description": "Cells were pre-treated with 30 μM DB4 for 1 hr and then treated with various concentrations of olaparib for 72 hr. Cell survival was determined by MTS cytotoxicity assay. Data are means±SD (N=3-4). […] EOB calculation was used to quantify the synergy of the combination of DB4 and various concentrations of olaparib in PEO1 or PEO4 cells as shown in FIG. 8A. EOB>0, synergism; EOB=0, additivity; EOB<0, antagonism. […] Cells were pre-treated with 30 μM DB4-F for 1 hr and then treated with various concentrations of olaparib for 72 hr. Cell survival was determined by MTS cytotoxicity assay. Data are means±SD (N=3-4). […] EOB calculation was used to quantify the synergy of the combination of DB4-F and various concentrations of olaparib in PEO1 or PEO4 cells as shown in FIG. 8B. EOB>0, synergism; EOB=0, additivity; EOB<0, antagonism. […] Cell survival was determined by MTS cytotoxicity assay. […] Caspase 3/7 activity was expressed as RLU per μg/μl protein. […] Caspase 3/7 activity was expressed as RLU per μg/μl protein. […] Cells were treated and caspase 3/7 activity was measured as described in FIG. 8G and FIG. 8H.\nIt was also examined whether DB4 sensitized BRCA-wild type EOC cells to a PARP inhibitor. BRCA2-mutated PEO1 and BRCA2-wild type PEO4 cells were treated with DB4 at 30 μM in combination with various concentrations of olaparib and cell survival was determined. […]", "data": [{"smiles": "C=CCn1c(SCc2cccc(Cl)c2)nnc1C1CCN(Cc2nc3ccccc3s2)CC1", "note": "[DB4, 2-[(4-{4-allyl-5-[(3-chlorobenzyl)thio]-4H-1,2,4-triazol-3-yl}-1-piperidinyl)methyl]-1,3-benzothiazole]", "values": [{"measurement": "sensitization to olaparib (cell survival)", "result": "minimal effects"}]}]}
